Results: patent US6599499B1, “Uses of diterpenoid triepoxides as an anti-proliferative agent” (priority 1999, dated 2003)
Entries after “also recorded” stand apart in the source; their conditions may differ.

Key:
H23 tumor cells = assay: Nude mouse xenograft, prevention of H23 tumor formation; format: in vivo, nude mice
Protocol: Nude mouse xenograft model. […] Tumor cells were grown and harvested as described above.
PG490-88 prevents human tumor development in nude mice. The results reported above show cytotoxicity of PG490 on tumor cells in vitro. To extend these studies to an in vivo setting using human tumor cell xenografts, PG490-88 was used, a more easily administered, water soluble prodrug of PG490. H23 tumor cells were implanted intradermally in nude mice and the animals were left untreated or were injected IP daily with PG490-88 starting at the time of implantation. Tumors arose in 5/5 of the untreated mice but no tumors were observed after 5 or 7 weeks of dosing with PG490-88 at doses ranging from 0.25 to 0.75 mg/kg/day (Table 1). PG490-88 treatment was stopped after week 5 in 3 mice per group and was continued for an additional 2 weeks in 2 mice per group. A visible tumor arose during the sixth week in one animal in each group in which PG490-88 dosed at 0.5 mg/kg/day or less was stopped but no more visible tumors appeared in these groups after week 6 (Table 1).
Nude mice were implanted with H23 tumor cells (day 0). Mice were left untreated, or were injected IP with PG490-88 daily from the day of tumor cell implantation for 5 consecutive days per week. PG490-88 was administered for 5 weeks. The untreated group consisted of 5 mice. Three mice in each of the treatment groups received PG490-88 for 5 weeks, and 2 mice in each of these groups were given PG490-88 for 2 additional weeks (7 weeks total). The tumor appeared only in mice in which treatment had been stopped after 5 weeks.

HT1080 tumor cells = assay: Nude mouse xenograft, established HT1080 tumors; format: in vivo, nude mice; conditions: PG490-88 0.75 mg/kg IP days 0-5 and 7-11, CPT-11 11 mg/kg IV days 1, 5, 9
Protocol: Mice. […] Nude mouse xenograft model. HT1080 tumor cells were grown in tissue culture flasks and harvested using EDTA and trypsin. Cells were centrifuged and the concentration of viable cells was appropriately adjusted. […] Tumor size was monitored after tumor cell implantation by measuring the width, length and thickness of the tumors and using a formula to calculate the volume. […] Control mice were left untreated. […] Combination therapy mice received both PG490-88 and CPT-11 treatments.

Dx5 cells [1] = assay: Cell survival of Bcl-2 or vector transfected Dx5 cells (X-gal staining); format: cell-based, human; conditions: PG490 20 ng/ml, 36 h
Protocol: Cells were cultured in the appropriate medium with 10% FCS supplemented with L-glutamine, penicillin and streptomycin. To examine the effect of Bcl-2 on cell survival, the Bcl-2 expression vector or the vector alone was co-transfected with a β galactosidase expression vector (Invitrogen, Carlsbad, Calif.) at a 5:1 ratio using lipofectamine plus (GIBCO BRL, Gaithersburg, Md.) into Dx5 cells. After 36 h cells were stained with 5-bromo4-chloro-3-indolyl □-D-galactopyranoside (X-gal). Cell survival was calculated as number of total cells-blue cells/total number of cells in a 90 mm^2 area from duplicate plates and expressed as the mean ±S.D.
Bcl-2 or vector control was transiently transfected into Dx5 cells followed by the addition of PG490 (20 ng/ml) and stained 36 h later with X-gal. % cell survival was calculated as total cells-blue cells/total cells×100. z-VAD.fmk (100 µM) was added to Dx5 cells 1 h prior to the addition of PG490 (20 ng/ml) and cells were harvested for analysis of cell viability 36 h later by annexin and propidium iodide staining followed by FACS analysis. Data represents the mean of three replicates from two independent experiments ±S.D.

p21 = p21 protein level by immunoblot in MCF-7 cells; format: cell-based, human; conditions: triptolide-treated MCF-7 cells
Protocol: (§1) Immunoblotting. At 8 hours after triptolide and/or doxorubicin treatment cells were harvested at the times indicated and lysed using HNET buffer (50 mM HEPES pH 7.5, 100 mM NaCl, 1 mM EGTA, and 1% Triton X-100) supplemented with 1 mM DTT, 1 mM PMSF and protease inhibitors cocktail (Boehringer Mannheim, Germany). 35 μg of protein was loaded on 10% SDS-PAGE followed by transferring to PVDF membrane. Immunoblotting was performed as previously described using a p53 mouse monoclonal antibody from Oncogene Research Products (Lee et al. (1999) J Biol Chem 274:13451-5).
(§2) Immunoblot analysis using other antibodies was performed as described above. The band intensity was measured by NIH Image 1.62.

Bax = Bax protein level by immunoblot in MCF-7 cells; format: cell-based, human; conditions: triptolide-treated MCF-7 cells
Protocol: as §1, §2

HT1080 cells = assay: Cell viability by trypan blue exclusion, HT1080 cells (Example 5)
Protocol: Cell Viability Assay. HT-1080 cells were seeded into 6-well plates at 2×10^5 per well the day before the treatment. For the inducible expression of exogenous p21 and LacZ, the stable transfectants were cultured in the presence of 5 μM ponasterone A for 16 h. […] The cells were untreated or treated with doxorubicin, triptolide, or the combination of both at indicated dosages for 8 h at 37° C. Subsequently, the medium was replaced with new media plus 5 μM ponasterone A. After 16 h incubation at 37° C., the number of viable cells within the same fields were determined by trypan blue exclusion with a 2% trypan blue solution.

p21 mRNA = p21 mRNA by Northern blot in HT1080 cells; format: cell-based, human; conditions: triptolide 20 ng/ml
Protocol: Northern Blot Analysis. RNA was prepared from HT1080 cells using RNeasy Mini Kit from Qiagen Inc. (Valencia, Calif.). cDNAs for Northern blot analysis for p21 and p53 were prepared using RT-PCR with […] of total RNA. The following primer pairs were used: p53, (SEQ ID NO:11) 5′-[…]-3′ and (SEQ ID NO:12) 5′-[…]-3′; p21, (SEQ ID NO:13) 5′-[…]-3′ and (SEQ ID NO:14) 5′-[…]-3′; and glyceraldehyde-3-phosphate dehydrogenase, (SEQ ID NO:15) 5′-[…]-3′ and 5′-(SEQ ID NO:16) […]-3′.

p53 = p53 protein stability in the presence of cycloheximide; format: cell-based, human
Protocol: as §2
Immunoblotting. Cells were harvested at the conditions and times indicated and lysed using HNET buffer (50 mM HEPES, pH 7.5, 100 mM NaCl, 1 mM EGTA, and 1% Triton X-100) supplemented with 1 mM dithiothreitol, 1 mM phenylmethylsulfonyl fluoride, and protease inhibitors mixture (Roche Molecular Biochemicals). 100 μg of protein was loaded on 10% SDS-PAGE followed by transferring to polyvinylidene difluoride membrane. Immunoblotting was performed as described previously using a p53 mouse monoclonal antibody from Oncogene Research Products. […] Immunoblot analysis using other antibodies was performed as described above. The band intensity was measured by NIH Image 1.62.

Dx5 cells [2] = conditions: cited from earlier work

CC(C)[C@]12O[C@H]1[C@@H]1O[C@]13[C@]1(O[C@H]1C[C@H]1C4=C(CC[C@@]13C)C(=O)OC4)[C@@H]2OC(=O)CCC(=O)[O-].[Na+] [PG490-88, 14-succinyl triptolide sodium salt]
Number of mice in group with a tumor (H23 tumor cells; PG490-88 0.25 mg/kg/day IP, Week 5): 0/5
Number of mice in group with a tumor (H23 tumor cells; PG490-88 0.25 mg/kg/day IP, Week 6): 1/5
Number of mice in group with a tumor (H23 tumor cells; PG490-88 0.25 mg/kg/day IP, Week 10): 1/5
Number of mice in group with a tumor (H23 tumor cells; PG490-88 0.375 mg/kg/day IP, Week 5): 0/5
Number of mice in group with a tumor (H23 tumor cells; PG490-88 0.375 mg/kg/day IP, Week 6): 1/5
Number of mice in group with a tumor (H23 tumor cells; PG490-88 0.375 mg/kg/day IP, Week 10): 1/5
Number of mice in group with a tumor (H23 tumor cells; PG490-88 0.5 mg/kg/day IP, Week 5): 0/5
Number of mice in group with a tumor (H23 tumor cells; PG490-88 0.5 mg/kg/day IP, Week 6): 1/5
Number of mice in group with a tumor (H23 tumor cells; PG490-88 0.5 mg/kg/day IP, Week 10): 1/5
Number of mice in group with a tumor (H23 tumor cells; PG490-88 0.75 mg/kg/day IP, Week 5): 0/5
Number of mice in group with a tumor (H23 tumor cells; PG490-88 0.75 mg/kg/day IP, Week 6): 0/5
Number of mice in group with a tumor (H23 tumor cells; PG490-88 0.75 mg/kg/day IP, Week 10): 0/5
H23 tumor formation (H23 tumor cells; PG490-88 0.75 mg/kg/day, 10 weeks of observation, sodium salt, 0.75 mg/kg/day): No visible tumors developed in any of the mice; also recorded: completely prevented
TV Mean Day 4 (HT1080 tumor cells): 167
TV Mean Day 7 (HT1080 tumor cells): 208
TV Mean Day 10 (HT1080 tumor cells): 247
TV Mean Day 14 (HT1080 tumor cells): 532
TV Mean Day 0 (HT1080 tumor cells; baseline): 107

CC(C)[C@]12O[C@H]1[C@@H]1O[C@]13[C@]1(O[C@H]1C[C@H]1C4=C(CC[C@@]13C)C(=O)OC4)[C@@H]2O [PG490, triptolide]
cell survival (Dx5 cells [1]; overexpression of Bcl-2): 72%
cell survival (Dx5 cells [1]; vector control): 15%
decrease in the level of p21 protein (p21): 3 fold
change in Bax (Bax): no significant change
effect on cell death by carboplatinum (HT1080 cells; A549 and HT1080 cells): enhanced cell death
cytotoxicity at 0.02 µg/mL (HT1080 cells; Homo sapiens, HT-1080, 24 h, read-out: reduction of HT1080 cell viability): 84%
effect on doxorubicin-mediated induction of p21 mRNA (p21 mRNA): completely blocked
p53 stability versus untreated cells (p53; HT1080, triptolide 20 ng/ml 0.5 h prior to cycloheximide 30 μg/ml): no difference from untreated cells at 60 min
p53 stability versus untreated cells (p53; MCF-7, triptolide 0.5 h prior to cycloheximide 30 μg/ml): no difference from untreated cells at 60 min

COc1cccc2c1C(=O)c1c(O)c3c(c(O)c1C2=O)C[C@@](O)(C(=O)CO)C[C@@H]3O[C@H]1C[C@H](N)[C@H](O)[C@H](C)O1 [doxorubicin, reference compound]
fold more resistant than the MES-SA parent cell line (Dx5 cells [2]): 100 fold
